From patent US7205300B2, “Aryl fused azapolycyclic compounds” (Pfizer Inc, priority 1997, dated 2007)

Row | SMILES | melting point
1 | Cl.Fc1ccc2c(c1)C1CNCC2C1 (stereo not shown) | 260 to 262 °C
2 | CN1CC2CC(C1)c1cc3nccnc3cc12.Cl | > 250 °C
3 | Cl.N#Cc1ccc2c(c1)C1CNCC2C1 (stereo not shown) | 268 to 273 °C
4 | CC(=O)c1ccc2c(c1)C1CNCC2C1.Cl (stereo not shown) | 198 to 202 °C
5 | Cl.Clc1cc2c(cc1Cl)C1CNCC2C1 | 283 to 291 °C
6 | Cl.Oc1cccc2c1C1CNCC2C1 (stereo not shown) | 253 to 255 °C
7 | Cl.Fc1cc2c(cc1F)C1CNCC2C1 | 301 to 303 °C
8 | Cl.FC(F)(F)c1cccc2c1C1CNCC2C1 (stereo not shown) | 275 to 277 °C
9 | Cl.Fc1cccc2c1C1CNCC2C1 (stereo not shown) | 269 to 271 °C
10 | Cl.O=[N+]([O-])c1ccc2c(c1)C1CNCC2C1 (stereo not shown) | 265 to 270 °C
11 | CC(=O)Nc1ccc2c(c1)C1CNCC2C1.Cl (stereo not shown) | 225 to 230 °C

Next, values leading:

Row | melting point | SMILES
12 | 183 to 184 °C | Cc1nc2cc3c(cc2s1)C1CNCC3C1.Cl (stereo not shown)
13 | > 250 °C | Cl.c1nc2cc3c(cc2[nH]1)C1CNCC3C1 (stereo not shown)
14 | 225 to 230 °C | Cc1nc2cc3c(cc2n1C)C1CNCC3C1.Cl (stereo not shown)
15 | 147 to 150 °C | CC(C)Cn1cnc2cc3c(cc21)C1CNCC3C1.Cl (stereo not shown)
16 | 129 to 130 °C | Cc1nc2cc3c(cc2n1CC(C)C)C1CNCC3C1.Cl (stereo not shown)
17 | 210 to 213 °C | Cl.c1ccc(-n2cnc3cc4c(cc32)C2CNCC4C2)cc1 (stereo not shown)
18 | > 250 °C | Cc1nc2cc3c(cc2n1-c1ccccc1)C1CNCC3C1.Cl (stereo not shown)
19 | > 250 °C | Cc1nc2cc3c(cc2o1)C1CNCC3C1.Cl (stereo not shown)
20 | 254 to 255 °C | Cc1ccc2c(c1)C1CNCC2C1.Cl (stereo not shown)
21 | 125 to 130 °C | Cl.O=C(Nc1cc2c(cc1O)C1CNCC2C1)c1ccccc1F (stereo not shown)
22 | 262 to 265 °C | Cl.c1ccc(-c2cccc3c2C2CNCC3C2)cc1 (stereo not shown)
23 | 249 to 251 °C | CC(C)c1nc2cc3c(cc2o1)C1CNCC3C1.Cl (stereo not shown)
24 | 260 °C (dec.) | Cl.c1cnc2cc3c(cc2c1)C1CNCC3C1 (stereo not shown)
25 | > 300 °C (dec.) | Cc1ccc2cc3c(cc2n1)C1CNCC3C1.Cl (stereo not shown)
26 | 288 to 291 °C (dec.) | CCc1cnc2cc3c(cc2c1)C1CNCC3C1.Cl (stereo not shown)
27 | 300 °C (dec.) | Cl.O=c1ccc2cc3c(cc2[nH]1)C1CNCC3C1 (stereo not shown)
28 | 189 to 192 °C | Cl.Nc1ccc2c(c1)C1CNCC2C1 (stereo not shown)
